Data: article PMC5452965 (PeerJ, 2017)
Where two headings read alike, the source gives them in different places.

Experiments:
[1] = test system: Hela cells; settings: MTT, 48 h; ref Wang et al. (2016a); cited from earlier work
[2] = test system: MCF-7 cells; settings: MTT, 72 h; ref Wang et al. (2016a); cited from earlier work
[3] = test system: U2OS cells; settings: MTT, 48 h; ref Wang et al. (2016a); cited from earlier work
[4] = test system: Hela cells; settings: 24 h, ref Wang et al. (2016a), cited from earlier work
[5] = test system: mitotic spindles in Hela cells; settings: Hela metaphase cells, 24 h, IC50; ref Wang et al. (2016a); cited from earlier work
[6] = test system: actin filaments in Hela cells; settings: cited from earlier work
[7] = test system: cellular actin filaments in actin-RFP Hela cells; settings: ref Wang et al. (2016a); cited from earlier work
[8] = test system: Hela cells; assay: MTT assay (cytotoxicity), Hela; format: cell-based, human; settings: 48 h; for IC80: 80% reduction of cell viability
Procedure: (§1) The anti-proliferative effects of cucurbitacins were assessed using MTT assay, as previously described ([Nurcahyanti & Wink, 2015]). In brief, cells (1 × 10^4) were seeded in 96-well plates and incubated with different concentrations of cucurbitacins for 48 h (Hela, U2OS) and 72 h (MCF-7). MTT solution was then added and incubated for 2 h. The plates were read at 570 nm after the addition of DMSO using Tecan infinite M200 Pro (Tecan, Crailsheim, Germany).
(§2) All experiments were done in triplicate, repeated three times. Data are presented as mean ± standard deviation (SD). Statistical comparison between controls and different treatments were performed by an unpaired student’s t test using Microsoft excel 2013 (Microsoft Corporation, Washington, USA). Significance was considered at p < 0.05.

[9] = test system: MCF-7 cells; assay: MTT assay (cytotoxicity), MCF-7; format: cell-based, human
Procedure: as §1, §2

[10] = test system: U2OS cells; assay: MTT assay (cytotoxicity), U2OS; format: cell-based, human; settings: 48 h
Procedure: as §1, §2

[11] = molecular target: T1, Porcine brain tubulin plus MAPs (Sus scrofa, UniProt P02550+P02554); assay: In vitro tubulin polymerization assay; format: biochemical; settings: for effect on tubulin assembly in vitro at 1 mM: Figure 4D
T1 construct: Porcine brain tubulin plus MAPs was prepared by two cycles of polymerization and depolymerization; from tissue; host or cells: porcine brain
Procedure: Porcine brain tubulin plus MAPs was prepared by two cycles of polymerization and depolymerization according to a standard protocol ([Gell et al., 2011]). In-vitro tubulin polymerization assays were carried out in PEM buffer (100 mM PIPES, 2 mM EGTA, 0.1 mM EDTA, 3 mM MgCl2, 1 mM ATP and 1 mM GTP, pH 6.85) by mixing 5.6 mg/ml tubulin-MAPs with different concentrations of cucurbitacins in 96-well plates at 37°C for 40 min. The rate and extent of the polymerization reaction were monitored by light scattering at 360 nm using Tecan infinite M200 Pro.
as §2

[12] = test system: Hela cells; assay: Cell cycle analysis (propidium iodide, flow cytometry); format: cell-based, human; settings: 24 h
Procedure: Cell cycle analysis was carried out as established in our laboratory ([Su, Cheng & Wink, 2015]). Briefly, Hela cells (5 × 10^5) were seeded in 6-well-plates and treated with different concentrations of cucurbitacins for 24 h. Cells were then collected, centrifuged and fixed in 70% ice-cold ethanol for at least 8 h. After washing steps, cells were treated with 0.2 mg/ml RNase A for 30 min at 37 C and then stained with 0.1 mg/ml propidium iodide. Samples were analyzed using a FACScan flow cytometer (Becton Dickinson, Heidelberg, Germany). Data were analyzed using Cell Quest™ Pro software (Becton Dickinson) and Microsoft excel (Microsoft Corporation, Washington, USA).

[13] = test system: microtubule network in α-tubulin-GFP U2OS cells; assay: Imaging of tubulin-GFP transfected U2OS cells; format: cell-based, human; settings: IC80 and IC50, 2-48 h
Procedure: Cells were imaged using a Keyence BZ-9000 microscope (Keyence; Neu-Isenburg, Germany) after incubation for 2 h, 4 h, 24 h and 48 h. The images were analyzed using BZ-II Analyzer software (version 2.1, Keyence; Neu-Isenburg, Germany).

[14] = test system: mitotic spindles in Hela cells; assay: Immunofluorescence staining, mitotic spindles; format: cell-based, human; settings: Hela metaphase cells, 24 h, IC50
Procedure: The immunofluorescence staining was carried out as established in our laboratory ([Wang et al., 2016a]).

[15] = test system: Hela, MCF-7 and U2OS cells; assay: MTT assay, summary over three cell lines; format: cell-based; settings: Homo sapiens; range over Hela, MCF-7, U2OS and over the three cucurbitacins
Procedure: as §1, §2

[16] = molecular target: T1, Porcine brain tubulin plus MAPs
[17] = test system: microtubule network in α-tubulin-GFP U2OS cells; settings: cited from earlier work
[18] = 1 h and 24 h, ref Wang et al. (2016a)

T1 sequence (P02550 whole entry): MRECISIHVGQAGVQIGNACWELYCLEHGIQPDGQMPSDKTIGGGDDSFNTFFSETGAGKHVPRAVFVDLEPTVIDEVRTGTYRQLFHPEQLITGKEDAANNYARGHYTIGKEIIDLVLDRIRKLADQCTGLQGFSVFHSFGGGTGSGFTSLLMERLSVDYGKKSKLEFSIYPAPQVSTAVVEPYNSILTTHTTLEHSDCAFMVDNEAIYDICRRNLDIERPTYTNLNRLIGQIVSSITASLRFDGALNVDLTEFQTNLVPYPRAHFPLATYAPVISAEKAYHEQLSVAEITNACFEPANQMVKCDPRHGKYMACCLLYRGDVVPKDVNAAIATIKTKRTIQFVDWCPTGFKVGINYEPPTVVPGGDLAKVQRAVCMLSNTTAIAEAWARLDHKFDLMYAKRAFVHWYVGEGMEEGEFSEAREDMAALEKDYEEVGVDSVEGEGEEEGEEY
T1 sequence (P02554 whole entry): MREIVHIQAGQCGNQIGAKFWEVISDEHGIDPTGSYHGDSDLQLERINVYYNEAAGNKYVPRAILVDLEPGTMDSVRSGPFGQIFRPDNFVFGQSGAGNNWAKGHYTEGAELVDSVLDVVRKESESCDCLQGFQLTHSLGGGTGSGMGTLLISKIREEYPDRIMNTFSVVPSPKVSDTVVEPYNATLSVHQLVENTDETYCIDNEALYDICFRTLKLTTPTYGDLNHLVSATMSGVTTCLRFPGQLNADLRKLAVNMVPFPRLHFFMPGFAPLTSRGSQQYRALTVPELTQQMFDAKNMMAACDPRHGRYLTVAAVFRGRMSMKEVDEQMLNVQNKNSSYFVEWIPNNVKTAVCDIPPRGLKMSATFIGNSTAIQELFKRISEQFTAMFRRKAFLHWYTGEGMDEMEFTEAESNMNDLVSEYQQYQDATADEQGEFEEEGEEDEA

| Compound | IC80 [1] | IC80 [2] | IC80 [3] | effect on cell cycle [4] | effect on mitotic spindles [5] | effect on actin filaments (immunofluorescence) [6, 18] | effect on cellular actin filaments (actin-RFP) [7] | IC50 ([8]; Homo sapiens, HeLa) | IC80 ([8]; Homo sapiens, HeLa) | IC50 ([9]; Homo sapiens, MCF7, 72 h) | IC80 ([9]; Homo sapiens, MCF7, 72 h) | IC50 ([10]; Homo sapiens, U2OS) | IC80 ([10]; Homo sapiens, U2OS) | IC50 [11] | effect on cell cycle [12] | effect on cellular microtubule network [13] | effect on mitotic spindles [14] | IC50 [15] | effect on tubulin assembly in vitro [11] | effect on tubulin assembly in vitro at 1 mM [11] | other results |
| --- | --- | --- | --- | --- | --- | --- | --- | --- | --- | --- | --- | --- | --- | --- | --- | --- | --- | --- | --- | --- | --- |
| COc1cc2c(c(OC)c1OC)-c1ccc(OC)c(=O)cc1[C@@H](NC(C)=O)CC2 [Colchicine, colchicine] | 0.027 ± 0.00748 µM | 0.0799 ± 0.0409 µM | 0.87 ± 1.46 µM | dose-dependent G2/M cell cycle arrest | completely depolymerized spindle with the compacted chromosomes | No apparent changes on actin filaments | No notable changes on actin filaments | – | – | – | – | – | – | – | – | – | – | – | – | – | G2/M population ([4]; 0.1μM): 89.66 ± 2.04% |
| CC(=O)OC(C)(C)/C=C/C(=O)[C@](C)(O)[C@H]1[C@H](O)C[C@@]2(C)[C@@H]3CC=C4[C@@H](C=C(O)C(=O)C4(C)C)[C@]3(C)C(=O)C[C@]12C [Cucurbitacin E, cucurbitacin E] | – | – | – | – | – | – | – | 0.00643 ± 0.00105 µM | 0.0151 ± 0.00267 µM | 0.054 ± 0.00316 µM | 0.92 ± 0.2 µM | 0.0151 ± 0.00451 µM | 0.0263 ± 0.0185 µM | 567 ± 113 µM | potential ability to arrest cell cycle at G2/M phase | changed the morphology of microtubule network into half-stretching state after 2 h incubation then round state after 24 h incubation | disordered distribution of spindle array | 0.00643 to 0.0647 µM | – | – | effect on phases of microtubule assembly (nucleation, growth, steady state) [11]: did not affect the nucleation but inhibited the growth phase and steady state; G2/M population ([12]; 0.3μM): 59.35 ± 5.69% |
| CC(C)(O)/C=C/C(=O)[C@](C)(O)[C@H]1[C@H](O)C[C@@]2(C)[C@@H]3CC=C4[C@@H](C=C(O)C(=O)C4(C)C)[C@]3(C)C(=O)C[C@]12C [Cucurbitacin I, cucurbitacin I] | – | – | – | – | – | – | – | 0.0448 ± 0.00154 µM | 0.0555 ± 0.00363 µM | 0.0647 ± 0.0143 µM | 0.29 ± 0.08 µM | 0.0235 ± 0.0169 µM | 0.034 ± 0.0177 µM | > 1000 µM | potential ability to arrest cell cycle at G2/M phase | – | multipolar spindles and chromosomes mis-segregation on the metaphase plate | 0.00643 to 0.0647 µM | did not affect the tubulin assembly in vitro | did not affect the assembly | G2/M population ([12]; 0.6μM): 59.18 ± 7.2% |
| C/C1=C/C(=O)O[C@@H]2C[C@@H](CC[C@H](C)/C=C\CC1)O[C@@](O)([C@@H]1CSC(=O)N1)C2 [Latrunculin B, latrunculin B] | 63.9 ± 5.68 µM | 140 ± 6.58 µM | 37.2 ± 15.7 µM | dose-dependent G2/M cell cycle arrest | did not alter mitotic spindles and chromosome arrangements | actin cytoskeleton extensively disrupted | actin cytoskeleton significantly disrupted | – | – | – | – | – | – | – | – | – | – | – | – | – | IC50 [1]: 11.2 ± 1.27 µM; IC50 [2]: 38.5 ± 1.7 µM; IC50 [3]: 5.67 ± 0.59 µM; IC50 ([16]; read-out: IC50, inhibition of tubulin polymerization in vitro; 5.6 mg/ml tubulin-MAPs, 37°C, 40 min; ref Wang et al. (2016a); cited from earlier work): > 1000 µM; effect on cellular microtubule network ([17]; both concentrations (IC80, IC50), ref Wang et al. (2016a)): changed the cell morphology from stretching state into round state |
| CC[C@]1(O)C[C@@H]2CN(CCc3c([nH]c4ccccc34)[C@@](C(=O)OC)(c3cc4c(cc3OC)N(C)[C@H]3[C@@](O)(C(=O)OC)[C@H](OC(C)=O)[C@]5(CC)C=CCN6CC[C@]43[C@@H]65)C2)C1 [Vinblastine, vinblastine] | 0.7 ± 0.34 µM | 2.08 ± 0.92 µM | 1.15 ± 0.51 µM | dose-dependent G2/M cell cycle arrest | depolymerized bipolar spindles | – | No notable changes on actin filaments | – | – | – | – | – | – | – | – | – | – | – | – | – | IC50 [1]: 2e-05 ± 1e-05 µM; IC50 [2]: 6e-05 ± 5e-05 µM; IC50 [3]: 0.00011 ± 7e-05 µM; IC50 ([16]; 5.6 mg/ml tubulin-MAPs, 37°C, 40 min; ref Wang et al. (2016a); read-out: IC50, inhibition of tubulin polymerization in vitro; cited from earlier work): 1.57 ± 0.34 µM; effect on phases of microtubule assembly (nucleation, growth, steady state) ([16]; ref Wang et al. (2016a); cited from earlier work): inhibited the nucleation and growth phase during the assembly; G2/M population ([4]; 10 nM): 78.04 ± 14.78%; effect on cellular microtubule network ([17]; concentration of IC50, ref Wang et al. (2016a)): extensively depolymerized microtubules; effect on cellular microtubule network ([17]; concentration of IC80, ref Wang et al. (2016a)): tubulin paracrystals were formed and dispersed through out the cytoplasm; effect on actin filaments (immunofluorescence) ([6]; 24 h, concentration of IC80, ref Wang et al. (2016a)): slight reduction of actin filament mass |
| cucurbitacin B | – | – | – | – | – | – | – | – | – | – | – | – | – | – | potential ability to arrest cell cycle at G2/M phase | changed the morphology of microtubule network into half-stretching state after 2 h incubation then round state after 24 h incubation | disordered distribution of spindle array | – | did not affect the tubulin assembly in vitro | did not affect the assembly | IC50 [8]: 0.0122 ± 0.00142 µM; IC80 [8]: 0.022 ± 0.00139 µM; IC50 ([9]; 72 h): 0.0229 ± 0.00451 µM; IC80 ([9]; 72 h): 0.0437 ± 0.0106 µM; IC50 [10]: 0.0171 ± 0.00455 µM; IC80 [10]: 0.0281 ± 0.0152 µM; effect on tubulin polymerization in vitro ([16]; same assay; ref Duangmano et al. (2012); cited from earlier work): did not affect tubulin polymerization in vitro |
